Earlier results as cited in patent US20250235471A1, “OIL-IN-WATER EMULSION FOR INHALATION ADMINISTRATION COMPRISING CANNABIDIOL(CBD)” (Incannex Healthcare Limited, priority 2021, published 2025).

Which aqueous solubility does the source give for `C=C(C)[C@@H]1CCC(C)=C[C@H]1c1c(O)cc(CCCCC)cc1O` [CBD, cannabidiol] here?
Its aqueous solubility is under 10 µg/mL.

And the “estimated oil/water partition coefficient (Log P)” value (estimated)?
Its value is 6-7.
